Data from patent publication US10160755B2 (Plexxikon Inc., priority 2015, dated 2018).

Tests used:
[1] = biological target: T1, FLT3-D835Y (Homo sapiens, UniProt P36888, D835Y); assay: FLT3-D835Y biochemical kinase assay (AlphaScreen)
T1 construct: purchased Invitrogen PV3967
T1 sequence (P36888 27-993 D835Y): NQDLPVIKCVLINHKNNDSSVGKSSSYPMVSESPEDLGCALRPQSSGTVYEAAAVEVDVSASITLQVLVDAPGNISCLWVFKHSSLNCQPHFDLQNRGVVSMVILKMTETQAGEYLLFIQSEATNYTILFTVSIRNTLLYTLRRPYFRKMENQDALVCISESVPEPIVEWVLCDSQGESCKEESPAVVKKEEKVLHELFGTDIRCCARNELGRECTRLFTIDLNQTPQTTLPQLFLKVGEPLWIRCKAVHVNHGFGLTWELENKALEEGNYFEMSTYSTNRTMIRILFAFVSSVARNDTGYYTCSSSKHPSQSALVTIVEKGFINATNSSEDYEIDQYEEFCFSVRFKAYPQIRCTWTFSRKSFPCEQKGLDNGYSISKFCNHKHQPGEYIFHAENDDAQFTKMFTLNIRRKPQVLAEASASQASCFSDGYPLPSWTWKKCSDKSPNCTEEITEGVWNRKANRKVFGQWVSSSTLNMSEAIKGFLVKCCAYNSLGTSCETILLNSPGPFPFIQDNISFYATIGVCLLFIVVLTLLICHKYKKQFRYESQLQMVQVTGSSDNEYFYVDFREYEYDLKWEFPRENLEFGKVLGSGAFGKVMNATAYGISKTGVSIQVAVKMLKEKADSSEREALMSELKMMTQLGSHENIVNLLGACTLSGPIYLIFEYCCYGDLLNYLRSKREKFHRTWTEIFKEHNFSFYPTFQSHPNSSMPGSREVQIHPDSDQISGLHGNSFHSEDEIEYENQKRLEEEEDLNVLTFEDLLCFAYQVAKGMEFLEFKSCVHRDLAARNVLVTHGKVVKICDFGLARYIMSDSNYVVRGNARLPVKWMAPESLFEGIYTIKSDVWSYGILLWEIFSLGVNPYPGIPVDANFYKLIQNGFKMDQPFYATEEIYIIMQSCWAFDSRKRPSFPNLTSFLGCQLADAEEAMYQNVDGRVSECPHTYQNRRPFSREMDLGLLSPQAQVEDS
How it was run: (§1)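 Recombinant kinase, biotin-GG(EEEEY)10EE 30 nM final, ATP 10 μM (D835Y) / 100 μM (ITD). Stop/detect: SA donor beads 20 min RT, then PY20 acceptor beads 60 min RT. AlphaScreen 580 nm signal; IC50.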

[2] = biological target: T2, FLT3-ITD (Homo sapiens, UniProt P36888); assay: FLT3-ITD biochemical kinase assay (AlphaScreen)
T2 construct: FLT3-ITD; Invitrogen #PV6190
T2 sequence (P36888 1-993): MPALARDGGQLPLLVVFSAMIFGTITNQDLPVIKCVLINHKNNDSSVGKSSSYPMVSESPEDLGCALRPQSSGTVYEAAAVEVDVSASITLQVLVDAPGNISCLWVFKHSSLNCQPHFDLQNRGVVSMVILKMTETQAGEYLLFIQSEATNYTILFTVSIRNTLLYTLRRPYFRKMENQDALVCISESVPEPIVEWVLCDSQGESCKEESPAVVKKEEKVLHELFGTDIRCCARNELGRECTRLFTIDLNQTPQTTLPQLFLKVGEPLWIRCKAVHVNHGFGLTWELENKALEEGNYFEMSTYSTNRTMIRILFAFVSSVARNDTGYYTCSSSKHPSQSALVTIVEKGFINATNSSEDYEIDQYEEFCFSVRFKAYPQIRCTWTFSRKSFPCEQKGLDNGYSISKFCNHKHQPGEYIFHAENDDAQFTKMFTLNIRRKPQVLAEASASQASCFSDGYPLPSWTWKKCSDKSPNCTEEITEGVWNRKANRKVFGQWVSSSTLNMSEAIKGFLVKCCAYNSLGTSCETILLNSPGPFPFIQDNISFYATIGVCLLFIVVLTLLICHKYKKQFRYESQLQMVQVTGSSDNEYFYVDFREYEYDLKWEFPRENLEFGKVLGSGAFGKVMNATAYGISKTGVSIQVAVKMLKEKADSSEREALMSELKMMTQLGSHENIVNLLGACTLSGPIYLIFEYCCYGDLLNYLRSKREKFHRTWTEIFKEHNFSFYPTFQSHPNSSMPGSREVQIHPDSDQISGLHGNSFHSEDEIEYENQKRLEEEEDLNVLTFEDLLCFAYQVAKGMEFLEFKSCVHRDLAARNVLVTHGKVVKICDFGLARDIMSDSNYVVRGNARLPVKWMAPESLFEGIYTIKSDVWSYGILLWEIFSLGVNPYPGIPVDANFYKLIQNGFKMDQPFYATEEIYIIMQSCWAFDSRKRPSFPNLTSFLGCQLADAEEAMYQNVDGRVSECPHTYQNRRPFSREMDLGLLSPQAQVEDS
How it was run: as §1

SMILES	IC50 [1] [µM]	IC50 [2] [µM]
COc1cnc2[nH]cc(-c3ccc4ncn(C5CCC5)c4c3)c2c1 [P-061, 1-cyclobutyl-6-(5-methoxy-1H-pyrrolo[2,3-b]pyridin-3-yl)benzimidazole]	0.0001 to 1	0.0001 to 1
Cc1ncc(-c2cnc3[nH]cc(-c4ccc5ncn(C(C)(C)C)c5c4)c3n2)cn1 [P-289, 7-(3-tert-butylbenzimidazol-5-yl)-2-(2-methylpyrimidin-5-yl)-5H-pyrrolo[2,3-b]pyrazine]	0.0001 to 1	0.0001 to 1
CCN1CCN(c2cc(-c3cnc4[nH]cc(-c5ccc6ncn(C(C)(C)C)c6c5)c4n3)ccn2)CC1 [P-328, 7-(3-tert-butylbenzimidazol-5-yl)-2-[2-(4-ethylpiperazin-1-yl)-4-pyridyl]-5H-pyrrolo[2,3-b]pyrazine]	0.0001 to 1	0.0001 to 1
CCN1CCN(c2cccc(-c3cnc4[nH]cc(-c5ccc6ncn(C(C)(C)C)c6c5)c4n3)c2)CC1 [P-330, 7-(3-tert-butylbenzimidazol-5-yl)-2-[3-(4-ethylpiperazin-1-yl)phenyl]-5H-pyrrolo[2,3-b]pyrazine]	0.0001 to 1	0.0001 to 1
CC(C)(C)n1cnc2ccc(-c3c[nH]c4ncc(-c5ccnc(C#N)c5)cc34)cc21 [P-291, 4-[3-(3-tert-butylbenzimidazol-5-yl)-1H-pyrrolo[2,3-b]pyridin-5-yl]pyridine-2-carbonitrile]	0.0001 to 1	0.0001 to 1
FC(F)n1cc(-c2cnc3[nH]cc(-c4ccc5ncn(C6CCCNC6)c5c4)c3c2)cn1 (stereo not shown) [P-274, 5-[1-(difluoromethyl)pyrazol-4-yl]-3-[3-(3-piperidyl)benzimidazol-5-yl]-1H-pyrrolo[2,3-b]pyridine]	0.0001 to 1	0.0001 to 1
CC(C)(C)n1cnc2ccc(-c3c[nH]c4ncc(-c5cccc(N6CCCCC6)c5)nc34)cc21 [P-336, 7-(3-tert-butylbenzimidazol-5-yl)-2-[3-(1-piperidyl)phenyl]-5H-pyrrolo[2,3-b]pyrazine]	0.0001 to 1	0.0001 to 1
CN1CCN(c2cccc(-c3cnc4[nH]cc(-c5ccc6ncn(C(C)(C)C)c6c5)c4n3)c2)CC1 [P-331, 7-(3-tert-butylbenzimidazol-5-yl)-2-[3-(4-methylpiperazin-1-yl)phenyl]-5H-pyrrolo[2,3-b]pyrazine]	0.0001 to 1	0.0001 to 1
CC(C)(C)n1cnc2ccc(-c3c[nH]c4ncc(-c5cnc(C#N)nc5)nc34)cc21 [P-352, 5-[7-(3-tert-butylbenzimidazol-5-yl)-5H-pyrrolo[2,3-b]pyrazin-2-yl]pyrimidine-2-carbonitrile]	0.0001 to 1	0.0001 to 1
CCN1CCN(c2cccc(-c3cnc4[nH]cc(-c5ccc6ncn(C7CCCNC7)c6c5)c4n3)c2)CC1 (stereo not shown) [P-329, 2-[3-(4-ethylpiperazin-1-yl)phenyl]-7-[3-(3-piperidyl)benzimidazol-5-yl]-5H-pyrrolo[2,3-b]pyrazine]	0.0001 to 1	0.0001 to 1
Cc1ccc(-c2cnc3[nH]cc(-c4ccc5ncn(C(C)(C)C)c5c4)c3n2)cn1 [P-388, 7-(3-tert-butylbenzimidazol-5-yl)-2-(6-methyl-3-pyridyl)-5H-pyrrolo[2,3-b]pyrazine]	0.0001 to 1	0.0001 to 1
CC(C)(C)n1cnc2ccc(-c3c[nH]c4ncc(-c5ccnc(N6CCCCS6(=O)=O)c5)nc34)cc21 [P-309, 2-[4-[7-(3-tert-butylbenzimidazol-5-yl)-5H-pyrrolo[2,3-b]pyrazin-2-yl]-2-pyridyl]thiazinane 1,1-dioxide]	0.0001 to 1	0.0001 to 1
O=S1(=O)CCCN1c1cc(-c2cnc3[nH]cc(-c4ccc5ncn(C6CCCNC6)c5c4)c3n2)ccn1 (stereo not shown) [P-295, 2-[4-[7-[3-(3-piperidyl)benzimidazol-5-yl]-5H-pyrrolo[2,3-b]pyrazin-2-yl]-2-pyridyl]-1,2-thiazolidine 1,1-dioxide]	0.0001 to 1	0.0001 to 1
CC(C)(C)n1cnc2ccc(-c3c[nH]c4ncc(-c5cccc(N6CCOCC6)c5)cc34)cc21 [P-316, 4-[3-[3-(3-tert-butylbenzimidazol-5-yl)-1H-pyrrolo[2,3-b]pyridin-5-yl]phenyl]morpholine]	0.0001 to 1	0.0001 to 1

More lines, now with the values ahead:

IC50 [1] [µM]	IC50 [2] [µM]	SMILES
0.0001 to 1	0.0001 to 1	c1cc(N2CCOCC2)ncc1-c1cnc2[nH]cc(-c3ccc4ncn(C5CCCNC5)c4c3)c2n1 (stereo not shown) [P-325, 4-[5-[7-[3-(3-piperidyl)benzimidazol-5-yl]-5H-pyrrolo[2,3-b]pyrazin-2-yl]-2-pyridyl]morpholine]
0.0001 to 1	0.0001 to 1	CC(C)(C)n1cnc2ccc(-c3n[nH]c4ncc(-c5ccnc(N6CCOCC6)c5)cc34)cc21 [P-297, 4-[4-[3-(3-tert-butylbenzimidazol-5-yl)-1H-pyrazolo[3,4-b]pyridin-5-yl]-2-pyridyl]morpholine]
0.0001 to 1	0.0001 to 1	CC(C)(C)n1cnc2ccc(-c3c[nH]c4ncc(-c5ccc(N6CCCCC6)nc5)nc34)cc21 [P-347, 7-(1-(tert-butyl)-1H-benzo[d]imidazol-6-yl)-2-(6-(piperidin-1-yl)pyridin-3-yl)-5H-pyrrolo[2,3-b]pyrazine]
0.0001 to 1	0.0001 to 1	O=S1(=O)CCCN1c1ccc(-c2cnc3[nH]cc(-c4ccc5ncn(C6CCCNC6)c5c4)c3c2)cc1 (stereo not shown) [P-319, 2-[4-[3-[3-(3-piperidyl)benzimidazol-5-yl]-1H-pyrrolo[2,3-b]pyridin-5-yl]phenyl]-1,2-thiazolidine 1,1-dioxide]
0.0001 to 1	0.0001 to 1	CC(C)(C)n1cnc2ccc(-c3c[nH]c4ncc(-c5ccc(N6CCOCC6)nc5)cc34)cc21 [P-322, 4-[5-[3-(3-tert-butylbenzimidazol-5-yl)-1H-pyrrolo[2,3-b]pyridin-5-yl]-2-pyridyl]morpholine]
0.0001 to 1	0.0001 to 1	c1cc(N2CCCCC2)ncc1-c1cnc2[nH]cc(-c3ccc4ncn(C5CCCNC5)c4c3)c2n1 (stereo not shown) [P-348, 7-[3-(3-piperidyl)benzimidazol-5-yl]-2-[6-(1-piperidyl)-3-pyridyl]-5H-pyrrolo[2,3-b]pyrazine]
0.0001 to 1	0.0001 to 1	CC(C)(C)n1cnc2ccc(-c3n[nH]c4ncc(-c5cccc(N6CCCS6(=O)=O)c5)cc34)cc21 [P-296, 2-[3-[3-(3-tert-butylbenzimidazol-5-yl)-1H-pyrazolo[3,4-b]pyridin-5-yl]phenyl]-1,2-thiazolidine 1,1-dioxide]
0.0001 to 1	0.0001 to 1	Cc1ncc(C#Cc2cnc3[nH]cc(-c4ccc5ncn(C(C)(C)C)c5c4)c3n2)cn1 [P-284, 7-(3-tert-butylbenzimidazol-5-yl)-2-[2-(2-methylpyrimidin-5-yl)ethynyl]-5H-pyrrolo[2,3-b]pyrazine]
0.0001 to 1	0.0001 to 1	CC(C)(C)n1cnc2ccc(-c3c[nH]c4ncc(-c5ccnc(N6CCCS6(=O)=O)c5)nc34)cc21 [P-294, 2-[4-[7-(3-tert-butylbenzimidazol-5-yl)-5H-pyrrolo[2,3-b]pyrazin-2-yl]-2-pyridyl]-1,2-thiazolidine 1,1-dioxide]
